“Also recorded” adds a separate entry of the source. Like-named read-outs stand apart in the source and are kept apart here.
Columns and labels:
AM-38 = experiment: Glioblastoma cell viability and proliferation assay (ATP), AM-38; assay type: cell-based; details: AM38, 72 hr
Experimental: FIG. 9. Glioblastoma in vitro cell viability and proliferation assay after treatment with de-ethylflavopereirine. Glioblastoma cell lines U-87MG, DBTRG-05MG, A172, and AM-38 were tested. Temozolomide, an oral chemotherapy drug known to treat some brain cancers, was used as a control. The concentrations of temozolomide (circles) or compound 13-9-1 (squares) used were 3 nM, 10 nM, 30 nM, 100 nM, 1 uM, 3 uM, 10 uM, and 30 uM. Each of the cell lines was treated with de-ethylflavopereirine for 72 hr before measuring cytotoxicity and inhibition of cell proliferation. Number of viable cells in culture based on quantitation of ATP. IC50 was determined as indicated below each graph.
The dose-response curves for the anti-brain cancer drug temozolomide are shown for comparison.

[1] = system: PANC-1 pancreatic cancer cells; experiment: Anchorage independent colony formation in soft agar; assay type: cell-based; details: 10 μM or 15 μM, 20 days; listed as De-ethylflavopereirine
Text: FIG. 13. Colony formation in soft agar of PANC-1 pancreatic cancer cells with or without de-ethylflavopereirine treatment.
Anchorage independent colony formation assay in soft agar was used to test long-term survival (20 days) of tumorigenic pancreatic cancer cells after exposure to de-ethylflavopereirine. PANC-1 cells formed colonies at the rate of 12% when untreated. […] No tumorigenic cancer cells survived after exposure to compound 13-9-1 (FIG. 13).

HT-29 = experiment: Viability of bioluminescent HT-29 colon cancer cells; assay type: cell-based, human; details: HT-29, luminescence
Text: FIG. 10. Dose-response curve for human colon cancer cell line HT-29 exposed to either de-ethylflavopereirine (squares) or Pao pereira plant extract (triangles) containing flavopereirine and at least one other anti-cancer compound, dihydroflavopereirine. The bioluminescent HT-29 cell line was used.
A bioluminescent line was used enabling viability to be assessed by luminescence. In this case, the activity of compound 13-9-1 was compared with a Pao pereira extract containing flavopereirine and at least one other anti-cancer compound.

RPWE-1 = experiment: Cell Proliferation (anti-cancer), RPWE-1; assay type: cell-based, human
Experimental: The primary goal of synthesizing de-ethylflavopereirine (compound 13-9-1) was to generate a different compound that still retains the anti-cancer cell activity of flavopereirine (compound 13-7-2). Comparison of the effects of the two compounds on proliferation of a variety of cancer cells confirmed that this goal was achieved. For example, the effect of de-ethylflavopereirine on two human breast cancer cell lines and two human prostate cancer cell lines were analyzed.

PANC-1 cells = experiment: Tumor formation and growth after inoculation of pretreated PANC-1 cells (FIG. 26); assay type: in vivo, mice
Experimental: FIG. 26. Effect of de-ethylflavopereirine on pancreatic cancer formation and growth. […] In the control group (top line of left graph), 86.67% (13/15) of the untreated mice formed tumors. Compound 13-9-1 (10 μM) decreased the rate to 80% (4/5); there was no effect on the time of tumor formation (bottom line of left graph). […] In the control group (top line of left graph), 80% (12/15) of the untreated mice formed tumors. Compound 13-9-1 (10 μM) decreased the tumor formation rate to 60% (3/5); this indicated reduction in tumor formation initiated by pancreatic cancer stem cells (bottom line of left graph). […] In FIG. 26C, after 2×10^4 PANC-1 cells were inoculated, 20% of the mice formed tumors in both the control group (3/15) and the treated group (1/5) at 38 days of observation.
In vivo, cancer stem cells are the primary source of tumor formation and growth. Thus, the rates of tumor formation and growth are indicators of cancer stem cell activity. When animals are inoculated with limited numbers of cancer cells, rates of tumor formation and growth can be accurately measured. It can then be determined whether a prospective agent slows the formation and growth rates of tumors, which is an indication of whether it acts against cancer stem cells. PANC-1 cancer cells were grown in suspension and pretreated with de-ethylflavopereirine at 10 μM concentration before inoculation into mice. As a negative control, PANC-1 cancer cells were not pretreated with the compound. Following inoculation, the rates of tumor formation and growth were measured. • 1) After 10^6 PANC-1 cells were inoculated, tumors formed in 87% of the mice in the control group and 80% of the mice in the treated group. […] De-ethylflavopereirine reduced tumor formation rate to 60%, indicating inhibition of pancreatic cancer stem cells. […] De-Ethylflavopereirine Suppresses PANC-1 Tumor Formation In Vivo: Anti-Cancer Stem Cell Activity

OVCAR-5, SHIN-3, OVCAR-8 = experiment: MTT cell viability, ovarian cancer cell lines; assay type: cell-based, human; details: 48 hr
Experimental: FIG. 7. Dose-response curves for cell viability of human ovarian cancer cell lines OVCAR-5 (triangles), SHIN-3 (squares), and OVCAR-8 (lozenges) exposed to de-ethylflavopereirine. Cells were cultured in the presence of increasing concentrations of the compound for 48 hr and cell viability was determined by MTT assay. MRC-5 (crosses), an immortalized, normal human […] cell line, was used as a control.
De-ethylflavopereirine was tested for its activity against ovarian, pancreatic, brain, and colon cancer cell lines. […] Cytotoxicity is assayed by reducing a yellow tetrazolium dye, 3-(4,5-dimethylthiazol-2-yl)-2,5-diphenyltetrazolium bromide (MTT), to insoluble purple formazan. The MTT assay is a colorimetric assay for determining the number of viable cells.

[2] = assay type: in vivo; details: 100, 150 and 200 mg/kg, groups of two, 48 hr observation
Experimental: A study with synthetic compounds 13-7-2 (flavopereirine) and 13-9-1 (de-ethylflavopereirine) was conducted to compare the toxicity of the two compounds in animals. The compounds were dissolved in phosphate buffered saline for administration. Both compounds were injected IP in male immunodeficient (homozygous recessive scid/scid, beige/beige) mice.
Compound 13-7-2 was injected at a dose of 100 mg/kg, 150 mg/kg, and 200 mg/kg in mice divided in groups of two. […] One mouse injected with 150 mg/kg died at 6 hr whereas one mouse injected with 200 mg/kg dose died at 24 hr. One mouse injected with 100 mg/kg dose died at 48 hr.
Compound 13-9-1 was injected at a dose of 100 mg/kg, 150 mg/kg, and 200 mg/kg in mice divided in groups of two.

[3] = 1×10^6 PANC-1 cells pretreated at 10 μM
[4] = 2×10^5 PANC-1 cells pretreated at 10 μM

For `c1ccc2c(c1)[nH]c1c2cc[n+]2ccccc12` [Compound 13-9-1, 12H-indolo[2,3-a]quinolizin-5-ium], the “IC50 relative to IC50 of temozolomide” value (AM-38) was 0.66 times, the “colony formation in soft agar” value [1] was “completely inhibited formation of PANC-1 colonies; also recorded: completely inhibited colony formation” and the “activity compared with Pao pereira extract” value (HT-29) was “active at much lower concentrations than the plant extract”. For the same molecule, the “Growth Inhibition” value (RPWE-1) was “Yes”, the IC50 (RPWE-1; Homo sapiens, after any period of treatment, read-out: Minimum Dose (IC50) needed to decrease growth 50% or greater versus control) was 5 µM and the “growth of tumors formed” value (PANC-1 cells; [3]) was “reduced the growth of tumors”. For the same molecule, the “time of tumor formation” value (PANC-1 cells; [3]) was “no effect”, the “tumor formation rate (mice that formed tumors)” value (“tumor formation rate” for short) (PANC-1 cells; [3]) was 80% and the “growth of tumors formed” value (PANC-1 cells; 1×10^6 PANC-1 cells pretreated at 10 μM, listed as De-ethylflavopereirine) was “significantly inhibited the growth”. The “growth of tumors formed” value (PANC-1 cells; 2×10^4 PANC-1 cells pretreated at 10 μM) was “not significantly different”, the “tumor formation rate” value (PANC-1 cells; 2×10^4 PANC-1 cells pretreated at 10 μM, 38 days) was 20% and the “growth of tumors formed” value (PANC-1 cells; [4]) was “significantly reduced tumor growth”. For the same molecule, the “tumor formation rate” value (PANC-1 cells; [4]) was 60%, the “growth of tumors formed” value (PANC-1 cells; 2×10^5 PANC-1 cells pretreated at 10 μM, listed as De-ethylflavopereirine) was “slowed the growth rate” and the cell viability (OVCAR-5, SHIN-3, OVCAR-8) was “dose-dependent decrease in cancer cell viability”. For the same molecule, the “deaths after IP injection” value [2] was “None of the mice injected with compound 13-9-1 died” and the “deaths after IP injection” value ([2]; listed as de-ethylflavopereirine) was “no mice injected IP with de-ethylflavopereirine died”.

Source: patent US11083714B2, “Selective anti-cancer agent effective for prevention and treatment” (Molecular International Research, Inc., priority 2018, dated 2021)
